A short description of one data set: Solubility in solvents. In kind it is physicochemical. From the text: The goal was to synthesize compounds that can be inserted into lipid carriers, such as liposomes. […] The retention of activity by compounds with 12-14 carbon unsaturated a chain modification is encouraging, for it enables the incorporation of these compounds in a lipid carrier system. […] This appears to be the first report where piperidinyl nitrogen of chalcones has been modified with lipid chains.

Data set [1] relates to H441 cells. Description: Monodansylcadaverine fluorescence microscopy of autophagosomes in H441 cells. It is filed as cell-based, human. On the procedure:
Monodansylcadaverine (MDC) is an autofluorescent marker for autophagic vacuoles. [Biederbick et al., 1995] It was found the emergence of intense MDC-fluorescence in the treated cells. The fluorescence vanished when the cells were treated with 3-methyl adenine (3-MA). […] [Seglen et al., 1982]

The test system of data set [2] is lung adenocarcinoma cell line H441. As to the kind of experiment: Cell proliferation (hexosaminidase assay) in lung adenocarcinoma H441 cells, Example 1. In kind it is cell-based, human. Particulars: Homo sapiens, NCI-H441, 24 h of treatment, 1-100 μM tested, fitted plot, read-out: IC50 value. On the procedure: Cell Proliferation Studies: In order to assess the anti-proliferative activity of the synthesized compounds, an in vitro cell culture system of lung adenocarcinoma cell line H441 was used. The cell detachment and anti-proliferative activity was measured as a decrease in hexosaminidase enzyme activity associated with remainder of the adhered cells. [Landegren, 1984] […] The concentration versus cell proliferation plots were analyzed by an exponential fit (Table 1). The results were compared with the anti-proliferative activity of compound 1.
Cell Culture and drug treatment: Human lung adenocarcinoma cell line NCI-H441 (ATCC Number: HTB-174) was obtained from the American Type Culture Collection (Manassas, Va.). H441 cells were maintained at 37° C. with 5% CO2 in McCoy's 5A Medium (Invitrogen, Carlsbad, Calif.) supplemented with 5% heat-inactivated fetal bovine serum (FBS). All media contained gentamicin at 50 μg/ml (GIBCO Laboratories, Grand Island, N.Y.). Other cells lines (PANC-1, MiaPaCa-2 and PC-3) were also similarly maintained, except that the cell culture medium was RPMI 1640 instead of McCoy's.
To evaluate the anti-proliferative activity of synthesized bis(2-fluorobenzylidene)-4-piperidone and its derivatives, the cells were seeded in 96-well flat-bottom tissue culture plates at a density of 10×10^3 cells per well. The cells were allowed to attach and grow overnight. The test compounds were solubilized in dimethyl sulfoxide (DMSO), filtered through 0.2 μm nylon filter and added to cells at 1, 10, 25 and 100 μM concentrations in culture medium supplemented with 5% FBS. The DMSO concentration was maintained at 0.1% per well. Control wells received equivalent volume of DMSO without any test compounds. The cells were allowed to remain in the treatment medium for 24, 48 and 72 hours.
Cell Proliferation: The total number of cells after the treatment period was estimated by the hexosaminidase assay. [Landegren, 1984] Briefly, the medium was removed and hexosaminidase substrate solution in citrate buffer pH 5 (7.5 mM), […] (Calbiochem, San Diego, Calif.) was added at 60 μl per well. The plate was incubated at 37° C. in 100% humidity for 30 minutes, before stopping the reaction with 90 μl of 50 mM glycine containing 5 mM of EDTA (pH 10.4). The absorbance was measured at 405 nm. The experiments were conducted in triplicate, and repeated at least twice. The data were analyzed as percent of control, where the control wells were treated with equivalent amounts of DMSO alone, and the analyzed data was presented as average±standard error of mean. The differences among mean values were deemed significant at p<0.05.
For IC50 calculations, a plot between the drug concentration and hexosaminidase activity was generated and the data was fitted either linearly or exponentially. The best fit was used for further processing of data.

Data set [3] deals with H441 cells. Description: Transmission electron microscopy of treated H441 cells (autophagy). It is filed as cell-based, human. Particulars: 24 hour treatment, 1 and 10 μM. On the procedure:
Transmission Electron Microscopy (TEM): TEM was performed after 24 hour treatment with 1 and 10 μM of compound 1 or compound 29 (CLEFMA). The cells were fixed in 0.1M sodium cacodylate buffer containing 4% paraformaldehyde (PFA) and 2% glutaraldehyde for 4 h at room temperature. The samples were post-fixed in 1% osmium tetroxide for 1.5 h and washed with 0.1M sodium cacodylate buffer, followed by dehydration in an ethanol series of 50%, 60%, 75%, 85%, and 95% for 15 minutes each. The cells were washed twice in 100% Ethanol and passed through a series of epon-araldite (6.2 g epon+4.4 g araldite+12.4 g of dodecenyl succinic anhydride+0.8 g N,N-dimethylbenzylamine) solution in ethanol, [Matsko et al., 2005] before embedding the cells in epon-araldite resin. Finally, 100 nm sections were cut using a microtome, and the sections were placed on glow-discharged 300 mesh Copper grids. The ultrasections were stained with Sato's lead (mixture of calcinated lead citrate, lead nitrate, lead acetate and sodium citrate), and observed by a Hitachi H-7600 Transmission Electron Microscope at 2500× (Oklahoma Medical Research Foundation Imaging and core facility, Oklahoma City).

Data set [4] relates to Human lung adenocarcinoma cell line NCI-H441. Description: In vitro anti-proliferative activity in H441 cells (hexosaminidase), Example 2. It is filed as cell-based. On the procedure: Human lung adenocarcinoma cell line NCI-H441 (ATCC # HTB-174) and normal lung fibroblasts LL-24 (ATCC #CCL-151) were obtained from American Type Culture Collection (Manassas, Va.). The cells were maintained at 37° C. with 5% CO2 in RPMI 1640 medium (Invitrogen, Carlsbad, Calif.). The medium was supplemented with 10% heat-inactivated fetal bovine serum and 50 μg/ml of gentamicin (GIBCO Laboratories, Grand Island, N.Y.). For cell proliferation assay, the cells were seeded in 96-well flat-bottom tissue culture plates at a density of 0.5−1×10^4 cells per well. The cells were allowed to adhere and grow overnight, followed by treatment with CLEFMA or CLEFMA-liposomes. The concentration of CLEFMA was maintained in the range of 0.1-25 μM in 100 μl of RPMI 1640 medium. For comparison, the cells were also treated with 1 and 10 μM natural curcumin and EF24. EF24 is a potent synthetic curcuminoid and a close analog of CLEFMA [Adams et al., 2004]. All solutions of plain drugs were made in dimethylsulfoxide (DMSO). The concentration of DMSO in the treatment medium was maintained at 0.1%. The control wells received equivalent amounts of DMSO or phospholipid-matched control liposomes. Inhibition of cell proliferation was determined by measuring a decrease in hexosaminidase activity as described by Landegren [Landegren, 1984]. Para-nitrophenol-N-acetyl-beta-D-glucosaminide (60 μl per well) was used as the substrate for the hexosaminidase enzyme. The results of hexosaminidase assay were also confirmed by visualization of cultured cells under a microscope.

SMILES strings stand for the structures.

For `CCCCCCCCCCCCCCCCCC(=O)N1CC(=Cc2ccccc2F)C(=O)C(=Cc2ccccc2F)C1` [Compound 25, 3,5-Bis-(2-fluorobenzylidene)-1-octadecanoyl-4-piperidone], the melting point (commonly the temperature, or range, at which the solid turns liquid) lay in the range of 70 to 71 °C. For the same compound, in the data set “Solubility in solvents”, the solubility in solvents result is “insoluble in all common solvents except chloroform”.
For `O=C1C(=Cc2ccccc2F)CNCC1=Cc1ccccc1F` [Compound 1, 3,5-Bis(2-fluorobenzylidene)-4-piperidone, reference compound], the “autophagosome formation (MDC fluorescence)” value with H441 cells [1] is “appearance of intracellular vacuoles or autophagosomes”. Moreover, in data set [2], the IC50 – broadly, the midpoint of a concentration-inhibition curve – was determined as 44 µM. In addition, the “change in cellular architecture (TEM)” value in the data set on H441 cells [3] is given as “induced a substantial change in cellular architecture”.
Take `N[C@@H](CCC(=O)N[C@@H](CS)C(=O)NCC(=O)O)C(=O)O` [Glutathione, glutathione]: the “anti-proliferative activity in H441 cells” value in data set [4] is “not anti-proliferative by itself”.

The record behind these values is patent US9359196B2, “Antiproliferative compositions comprising curcumin analogs and methods of producing and using same” (The Board of Regents of the University of Oklahoma, priority 2009, dated 2016).
